Values of other authors as cited in patent publication US5554621A, “Dihydropyridine NPY antagonists: nitrogen heterocyclic derivatives” (Bristol-Myers Squibb Company, priority 1995, dated 1996).
Each block holds one molecule with its values, some of them ahead of it.

What was measured:
[1] = system: NPY-induced increase in intracellular Ca++ in SK-N-Mc cells
[2] = system: NPY-induced pressor response; conditions: pithed rat
[3] = system: I-125 labeled NPY and PYY in human neuroblastoma cells
[4] = system: NPY-related increases in diastolic blood pressure; conditions: anesthetized guinea pig
Y2 receptor = molecular target: T1, Y2 receptor (Rattus norvegicus, UniProt Q9ERC0); conditions: functional selectivity for Y2 receptor
T1 sequence (Q9ERC0 1-381): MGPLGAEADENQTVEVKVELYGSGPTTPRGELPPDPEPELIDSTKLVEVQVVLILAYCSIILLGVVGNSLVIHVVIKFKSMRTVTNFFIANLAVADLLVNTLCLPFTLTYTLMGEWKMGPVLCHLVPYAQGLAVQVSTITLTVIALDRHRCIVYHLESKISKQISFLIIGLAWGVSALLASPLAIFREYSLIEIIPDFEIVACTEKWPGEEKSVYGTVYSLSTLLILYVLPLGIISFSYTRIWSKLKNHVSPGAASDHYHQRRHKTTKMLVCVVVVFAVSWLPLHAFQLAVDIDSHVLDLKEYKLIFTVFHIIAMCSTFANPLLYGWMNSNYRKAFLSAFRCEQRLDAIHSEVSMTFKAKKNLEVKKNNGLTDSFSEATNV

3H-NPY in rat brain = conditions: read-out: IC50 (displacement of 3H-NPY)
NPY1 = molecular target: T2, NPY1 (Rattus norvegicus, UniProt P21555)
T2 construct: vasoconstrictive activity of the NPY1 agonist
T2 sequence (P21555 1-382): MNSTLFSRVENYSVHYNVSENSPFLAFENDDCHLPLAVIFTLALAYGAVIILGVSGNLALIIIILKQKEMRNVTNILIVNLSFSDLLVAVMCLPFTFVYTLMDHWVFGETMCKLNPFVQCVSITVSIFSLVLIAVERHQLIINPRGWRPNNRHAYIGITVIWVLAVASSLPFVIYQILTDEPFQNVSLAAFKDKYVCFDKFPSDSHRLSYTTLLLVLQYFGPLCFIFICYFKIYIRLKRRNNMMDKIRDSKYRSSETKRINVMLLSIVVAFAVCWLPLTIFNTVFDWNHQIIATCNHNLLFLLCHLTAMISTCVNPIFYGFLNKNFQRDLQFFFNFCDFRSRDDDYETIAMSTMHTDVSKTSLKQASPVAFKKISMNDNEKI

[5] = system: NPY-induced contractions in guinea pig basilar artery

Structure (SMILES): N=C(N)NCCC[C@@H](NC(=O)C(c1ccccc1)c1ccccc1)C(=O)NCc1ccc(O)cc1 [BIBP 3226]
- Antagonism of NPY-induced increase in intracellular Ca++ [1]: antagonized
- Antagonism of NPY-induced pressor response [2]: antagonizing

Structure (SMILES): CN(C)CC1CCC(CNC(=N)c2ccc(CC(NC(=O)C(Cc3ccccc3)NS(=O)(=O)c3ccc4ccccc4c3)C(=O)N3CCCC3)cc2)CC1 (stereo not drawn) [SR 120819A]
- Displacement of I-125 labeled NPY and PYY [3]: displacing
- Antagonism of NPY-related increases in diastolic blood pressure [4]: antagonized

- Effect against NPY2 agonist NPY13-36 (Y2 receptor): antagonized the effect
- IC50 (3H-NPY in rat brain): 18.4 µM
- Effect on vasoconstrictive activity of NPY1 agonist [Leu31, Pro34]NPY (NPY1): no effect
Structure (SMILES): N=C(N)N(CCCCCCNCc1ccc2ccccc2c1)CCCCCCN(CCCCCCNCc1ccc2ccccc2c1)C(=N)N [Example 6b]
- Functional antagonism (rat femoral artery): functional antagonism

Structure (SMILES): O=P(O)(O)O[C@@H]1[C@H](OP(=O)(O)O)[C@H](O)[C@@H](O)[C@H](O)[C@H]1OP(=O)(O)O [D-Myo-inositol-1,2,6-triphosphate]
- Antagonism of NPY-induced contractions [5]: potent but non-competitive antagonist
